Test results published in ChEMBL document CHEMBL5214883, “Comprehensive review for anticancer hybridized multitargeting HDAC inhibitors” (Eur J Med Chem, 2021).

Assays:
[1] = target: cGMP-specific 3',5'-cyclic phosphodiesterase (Homo sapiens, UniProt O76074); assay: Inhibition of PDE5 (unknown origin) incubated for 1.5 hrs by IMAP fluorescence polarization phosphodiesterase evaluation assay
Histone deacetylase [2] = assay: Inhibition of HDAC (unknown origin) by H4 Hybrid Multi-Mode Microplate Reade; type: protein assay, Homo sapiens
Histone deacetylase 1 [3] = target: T1, Histone deacetylase 1 (Homo sapiens, UniProt Q13547); assay: Inhibition of HDAC1 in human HeLa cell nuclear extract using Bos-Lys(acetyl)-AMC as substrate preincubated for 5 mins followed by substrate addition incubated for 30 mins; type: cell-free
[4] = target: Epidermal growth factor receptor (Homo sapiens, UniProt P00533); assay: Inhibition of EGFR wildtype (unknown origin) incubated for 40 mins in presence of ATP
[5] = tested on: Epidermal growth factor receptor (Homo sapiens), P00533 [UNDEFINED MUTATION]; assay: Inhibition of EGFR T790M (unknown origin) at 1 uM incubated for 40 mins in presence of ATP relative to control
Histone deacetylase [6] = assay: Inhibition of HDAC (unknown origin); type: protein assay, Homo sapiens
PC-3 = assay: Antiproliferative activity against human PC-3 cells incubated for 48 hrs by Sulforhodamine B staining method; type: functional, cell-based; details: PC-3, 48 h
DU-145 [7] = assay: Antiproliferative activity against human DU-145 cells incubated for 48 hrs by Sulforhodamine B staining method; type: functional, cell-based; details: DU-145, 48 h
MCF7 = assay: Cytotoxicity against human MCF7 cells; type: functional, cell-based
Tubulin = assay: Inhibition of tubulin polymerization (unknown origin) incubated for 15 mins in presence of GTP by fluorescence-based tubulin polymerization assay kit; type: protein-complex assay, Homo sapiens
[8] = target: Vascular endothelial growth factor receptor 2 (Homo sapiens, UniProt P35968); assay: Inhibition of VEGFR2 (unknown origin)
Histone deacetylase 1 [9] = target: T1, Histone deacetylase 1; assay: Inhibition of HDAC1 (unknown origin)
[10] = tested on: Panel NCI-60 (60 carcinoma cell lines); assay: Cytotoxicity against human Panel NCI-60 (60 carcinoma cell lines); type: functional, cell-based
Bcr/Abl fusion protein = Bcr/Abl fusion protein (Homo sapiens, UniProt P00519); assay: Inhibition of Bcr-Abl (unknown origin); type: protein assay
K562 = assay: Cytotoxicity against human K562 cells
DU-145 [11] = assay: Cytotoxicity against human DU-145 cells
Histone deacetylase 1 [12] = target: T1, Histone deacetylase 1; assay: Inhibition of HDAC1 (unknown origin) relative to control; details: concentration not given here
[13] = target: T2, Protein deacetylase HDAC6 (Homo sapiens, UniProt Q9UBN7); assay: Inhibition of HDAC6 (unknown origin) using fluorogenic substrate incubated for 30 mins by fluorometric drug discovery assay kit method
T2 sequence (Q9UBN7 whole entry): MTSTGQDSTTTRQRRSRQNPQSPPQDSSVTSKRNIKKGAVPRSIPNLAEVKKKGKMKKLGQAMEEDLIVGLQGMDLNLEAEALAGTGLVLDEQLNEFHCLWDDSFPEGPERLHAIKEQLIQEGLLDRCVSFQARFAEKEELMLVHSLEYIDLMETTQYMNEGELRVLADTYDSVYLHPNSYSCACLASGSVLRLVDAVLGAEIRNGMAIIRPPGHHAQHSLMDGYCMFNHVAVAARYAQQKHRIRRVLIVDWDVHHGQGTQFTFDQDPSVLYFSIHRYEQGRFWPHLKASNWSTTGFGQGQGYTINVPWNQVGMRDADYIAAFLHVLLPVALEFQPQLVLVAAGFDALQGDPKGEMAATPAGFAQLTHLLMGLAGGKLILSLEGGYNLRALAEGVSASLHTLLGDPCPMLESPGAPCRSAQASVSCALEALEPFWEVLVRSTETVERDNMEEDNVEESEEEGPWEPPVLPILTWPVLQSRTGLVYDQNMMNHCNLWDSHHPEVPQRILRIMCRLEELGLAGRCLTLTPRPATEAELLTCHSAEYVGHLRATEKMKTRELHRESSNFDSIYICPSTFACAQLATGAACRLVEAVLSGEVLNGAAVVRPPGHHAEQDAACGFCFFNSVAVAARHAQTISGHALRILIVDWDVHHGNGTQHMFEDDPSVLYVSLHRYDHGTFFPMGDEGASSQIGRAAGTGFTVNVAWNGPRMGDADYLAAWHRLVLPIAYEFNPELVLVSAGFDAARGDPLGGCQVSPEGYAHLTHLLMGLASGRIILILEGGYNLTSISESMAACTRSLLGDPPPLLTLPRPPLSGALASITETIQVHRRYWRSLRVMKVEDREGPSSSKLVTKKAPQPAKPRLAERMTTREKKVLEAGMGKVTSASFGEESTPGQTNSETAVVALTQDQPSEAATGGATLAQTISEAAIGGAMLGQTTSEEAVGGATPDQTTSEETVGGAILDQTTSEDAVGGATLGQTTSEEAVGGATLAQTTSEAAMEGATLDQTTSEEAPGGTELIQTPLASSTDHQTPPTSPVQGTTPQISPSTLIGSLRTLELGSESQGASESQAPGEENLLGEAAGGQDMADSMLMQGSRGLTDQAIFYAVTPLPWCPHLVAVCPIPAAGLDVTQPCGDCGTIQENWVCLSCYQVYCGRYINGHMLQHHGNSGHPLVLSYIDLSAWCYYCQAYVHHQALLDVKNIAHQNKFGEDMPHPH

HCT-116 = assay: In vivo antitumor activity against human HCT-116 cells xenografted in BALB/c nude mouse assessed as tumor growth inhibition at 150 mg/kg, po relative to control; type: functional; details: read-out: TGI
[14] = target: T2, Protein deacetylase HDAC6; assay: Inhibition of HDAC-6 (unknown origin) expressed in Escherichia coli BL21 (DE3) in HeLa nuclear extract using Boc-Lys(TFA)-AMC as substrate preincubated for 5 mins followed by substrate addition measured after 30 mins […]
SMMC-7721 = assay: Cytotoxicity against human SMMC-7721 cells; type: functional, cell-based

T1 sequence (Q13547 whole entry): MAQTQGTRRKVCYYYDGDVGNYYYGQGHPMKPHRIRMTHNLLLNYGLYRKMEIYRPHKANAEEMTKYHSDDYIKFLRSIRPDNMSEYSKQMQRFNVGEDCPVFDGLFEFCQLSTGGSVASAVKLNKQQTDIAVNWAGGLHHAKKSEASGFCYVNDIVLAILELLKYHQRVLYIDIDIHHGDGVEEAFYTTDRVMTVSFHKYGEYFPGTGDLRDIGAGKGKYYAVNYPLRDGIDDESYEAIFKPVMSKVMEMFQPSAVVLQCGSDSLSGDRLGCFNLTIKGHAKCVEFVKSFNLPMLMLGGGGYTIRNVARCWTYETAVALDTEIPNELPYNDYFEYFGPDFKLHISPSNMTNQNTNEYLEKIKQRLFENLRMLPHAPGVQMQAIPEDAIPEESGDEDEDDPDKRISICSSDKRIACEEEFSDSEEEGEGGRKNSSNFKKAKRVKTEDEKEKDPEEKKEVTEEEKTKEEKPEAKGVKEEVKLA
Chain of Epidermal growth factor receptor (Homo sapiens), P00533 [UNDEFINED MUTATION] (P00533 whole entry, looked up, stated change not applied): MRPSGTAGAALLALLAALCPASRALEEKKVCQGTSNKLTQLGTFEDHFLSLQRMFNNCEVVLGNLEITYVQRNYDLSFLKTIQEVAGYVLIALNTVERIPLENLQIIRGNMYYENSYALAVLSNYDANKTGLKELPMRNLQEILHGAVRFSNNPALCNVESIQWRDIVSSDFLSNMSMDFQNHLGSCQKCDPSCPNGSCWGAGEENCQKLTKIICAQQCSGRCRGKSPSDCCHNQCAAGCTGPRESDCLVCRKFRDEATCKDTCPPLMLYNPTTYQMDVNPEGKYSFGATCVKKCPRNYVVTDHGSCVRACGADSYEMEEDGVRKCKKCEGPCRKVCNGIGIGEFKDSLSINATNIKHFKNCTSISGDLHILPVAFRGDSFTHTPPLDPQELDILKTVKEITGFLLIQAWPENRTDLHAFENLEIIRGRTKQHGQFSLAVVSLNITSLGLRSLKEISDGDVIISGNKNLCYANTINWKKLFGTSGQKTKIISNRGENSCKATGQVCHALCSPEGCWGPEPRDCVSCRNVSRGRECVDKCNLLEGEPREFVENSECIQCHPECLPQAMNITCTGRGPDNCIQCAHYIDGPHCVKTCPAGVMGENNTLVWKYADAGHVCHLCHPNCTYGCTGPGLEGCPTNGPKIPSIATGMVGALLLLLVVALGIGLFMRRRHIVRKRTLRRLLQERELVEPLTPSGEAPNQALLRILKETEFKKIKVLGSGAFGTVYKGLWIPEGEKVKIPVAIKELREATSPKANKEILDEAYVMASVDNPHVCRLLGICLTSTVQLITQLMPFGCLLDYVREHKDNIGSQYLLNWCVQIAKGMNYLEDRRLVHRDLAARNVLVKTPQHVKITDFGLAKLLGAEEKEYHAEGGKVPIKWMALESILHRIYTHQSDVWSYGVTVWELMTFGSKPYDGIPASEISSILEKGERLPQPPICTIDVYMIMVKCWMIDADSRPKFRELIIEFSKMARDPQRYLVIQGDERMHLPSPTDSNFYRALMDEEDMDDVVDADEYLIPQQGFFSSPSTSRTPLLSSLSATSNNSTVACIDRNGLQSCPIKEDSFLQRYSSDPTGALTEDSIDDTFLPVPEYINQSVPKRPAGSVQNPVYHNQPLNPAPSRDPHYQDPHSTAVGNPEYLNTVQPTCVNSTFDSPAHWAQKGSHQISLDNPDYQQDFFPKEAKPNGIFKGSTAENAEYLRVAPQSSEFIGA
Chain of Epidermal growth factor receptor (P00533 whole entry): as the sequence (P00533 whole entry, looked up, stated change not applied) above
Chain of Vascular endothelial growth factor receptor 2 (P35968 whole entry): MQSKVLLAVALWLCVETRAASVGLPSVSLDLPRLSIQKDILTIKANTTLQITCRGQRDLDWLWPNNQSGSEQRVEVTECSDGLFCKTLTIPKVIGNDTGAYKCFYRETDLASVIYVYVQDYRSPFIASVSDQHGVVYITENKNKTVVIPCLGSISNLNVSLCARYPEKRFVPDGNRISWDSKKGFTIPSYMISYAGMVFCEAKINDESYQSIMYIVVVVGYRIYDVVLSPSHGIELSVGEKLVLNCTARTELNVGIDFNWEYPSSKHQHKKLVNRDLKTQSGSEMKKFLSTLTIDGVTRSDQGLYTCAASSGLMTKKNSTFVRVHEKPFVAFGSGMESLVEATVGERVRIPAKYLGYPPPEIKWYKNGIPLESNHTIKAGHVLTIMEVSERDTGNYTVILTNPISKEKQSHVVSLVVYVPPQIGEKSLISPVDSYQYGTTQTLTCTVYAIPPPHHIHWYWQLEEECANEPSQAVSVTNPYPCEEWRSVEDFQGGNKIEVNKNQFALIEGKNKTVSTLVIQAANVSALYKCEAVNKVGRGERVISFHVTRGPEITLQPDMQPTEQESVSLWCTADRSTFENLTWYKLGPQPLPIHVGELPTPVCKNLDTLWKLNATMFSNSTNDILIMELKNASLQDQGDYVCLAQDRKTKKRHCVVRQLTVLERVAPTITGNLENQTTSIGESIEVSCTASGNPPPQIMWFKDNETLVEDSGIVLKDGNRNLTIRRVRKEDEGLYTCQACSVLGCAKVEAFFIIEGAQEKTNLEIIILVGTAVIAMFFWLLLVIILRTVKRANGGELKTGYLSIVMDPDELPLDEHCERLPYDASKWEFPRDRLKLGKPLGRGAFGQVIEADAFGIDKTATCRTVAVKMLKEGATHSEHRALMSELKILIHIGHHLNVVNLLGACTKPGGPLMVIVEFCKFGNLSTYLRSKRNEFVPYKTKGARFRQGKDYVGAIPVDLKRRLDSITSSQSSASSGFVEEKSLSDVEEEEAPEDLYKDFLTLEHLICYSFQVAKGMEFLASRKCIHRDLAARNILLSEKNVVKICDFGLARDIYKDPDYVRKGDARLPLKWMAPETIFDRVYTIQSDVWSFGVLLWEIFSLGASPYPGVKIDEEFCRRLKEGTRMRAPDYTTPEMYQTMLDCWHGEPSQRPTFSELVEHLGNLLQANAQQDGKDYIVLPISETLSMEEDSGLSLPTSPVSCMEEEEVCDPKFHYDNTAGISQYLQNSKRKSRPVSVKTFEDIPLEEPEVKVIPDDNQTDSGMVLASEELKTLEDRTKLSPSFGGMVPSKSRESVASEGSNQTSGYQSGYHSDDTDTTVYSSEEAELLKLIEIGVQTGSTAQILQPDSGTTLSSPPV

O=C(CCCCCCN1CC(=O)N2[C@H](CC3c4ccccc4NC3[C@H]2c2ccc(Br)cc2)C1=O)NO (stereo not given in full)
IC50 [1]: 0.0462 µM | IC50 (Histone deacetylase [2]): 0.0142 µM

COc1cc(NC(=O)CCCCCCC(=O)NO)ccc1Nc1nccc(-c2cn(C)c3ccccc23)n1
IC50 (Histone deacetylase 1 [3]): 0.085 µM | IC50 [4]: 5.9 µM | inhibition [5]: 15%

CNC(=O)c1cc(Oc2ccc(NC(=O)c3cccnc3)cc2)ccc1N
IC50 (Histone deacetylase [6]): 5.23 µM

CN(C)CCNC(=O)c1cccc2cc3ccccc3nc12
IC50 (PC-3): 1.86 µM | IC50 (DU-145 [7]): 2 µM

CNC(=O)c1cc(Oc2ccc(NC(=O)c3ccccc3)cc2)ccc1N
IC50 (Histone deacetylase [6]): 6.19 µM

COc1cc2ncnc(Nc3ccc(Br)cc3)c2cc1OCCCCCCC(=O)NO
IC50 (MCF7): 0.88 µM

NC(=O)c1cc(Oc2ccc(NC(=O)c3ccc(Cl)c(C(F)(F)F)c3)cc2)ccc1N
IC50 (Histone deacetylase [6]): 2.79 µM

C[C@H]1COc2c(N3CCN(C)CC3)c(F)cc3c(=O)c(C(=O)OCc4cn(CCCCCCCC(=O)NO)nn4)cn1c23
IC50 (Tubulin): 6.63 µM

CNC(=O)c1cc(Oc2ccc(NC(=O)c3ccc4ccccc4c3)cc2)ccc1N
IC50 (Histone deacetylase [6]): 8.21 µM

COc1cc2ncnc(Nc3ccc(Cl)cc3Cl)c2cc1OCCCCCCC(=O)NO
IC50 (MCF7): 12 µM | IC50 (Histone deacetylase [6]): 0.0028 µM | IC50 [8]: 0.084 µM

Cn1c(CCCCCCC(=O)NO)nc2cc(N(CCCl)CCCl)ccc21 [TINOSTAMUSTINE]
IC50 (Histone deacetylase 1 [9]): 0.01 µM | IC50 [10]: 2.2 µM

CCN1CCN(c2cc(Nc3ncc(C(=O)Nc4ccc(F)cc4N)s3)nc(C)n2)CC1
IC50 (Histone deacetylase 1 [9]): 0.81 µM | IC50 (Bcr/Abl fusion protein): 17.8 µM | IC50 (K562): 2.62 µM | IC50 (DU-145 [11]): 0.6 µM

O=C(CCn1cc(CCn2nc3c(Br)c(Br)c(Br)c(Br)c3n2)nn1)NO
inhibition (Histone deacetylase 1 [12]): 97%

O=C(O)CCN1CC(=O)N2[C@H](CC3c4ccccc4NC3[C@H]2c2ccc(Br)cc2)C1=O (stereo not given in full)
IC50 [1]: 0.002 µM

CN(C)c1nc2c(Br)c(Br)c(Br)c(Br)c2n1CCCCCC(=O)NO
IC50 [13]: 0.86 µM

C[C@H]1COc2c(N3CCN(C)CC3)c(F)cc3c(=O)c(C(=O)OCc4cn(CCCCCCC(=O)NO)nn4)cn1c23
IC50 (Tubulin): 1.84 µM

CN1c2ccccc2C(=O)N2[C@H](C(=O)Nc3ccc(C(=O)Nc4ccccc4N)cc3)Cc3c([nH]c4ccccc34)[C@@H]12
inhibition in vivo at 150 mg/kg (HCT-116): 75.2%

O=C(CCCCCNC(=O)c1cccc2cc3ccccc3nc12)NO
IC50 [14]: 0.0023 µM

C[C@H]1COc2c(N3CCN(C)CC3)c(F)cc3c(=O)c(C(=O)NCc4cn(CCCCCCCC(=O)NO)nn4)cn1c23
IC50 (Tubulin): 6.68 µM

CC(C)=CCC/C(C)=C\CC/C(C)=C\CSc1ccccc1C(=O)O
IC50 (SMMC-7721): 66 µM

CNC(=O)c1cc(Oc2ccc(NC(=O)c3ccc(Cl)c(C(F)(F)F)c3)cc2)ccc1N
IC50 (Histone deacetylase [6]): 1.17 µM

Cc1nc(Nc2ncc(C(=O)Nc3c(C)cccc3Cl)s2)cc(N2CCN(CCO)CC2)n1 [DASATINIB]
IC50 (K562): 7.44 µM | IC50 (DU-145 [11]): 2.43 µM

Cn1cc(-c2ccnc(Nc3ccc(NC(=O)CCCCCC(=O)NO)cc3)n2)c2ccccc21
IC50 (Histone deacetylase 1 [3]): 0.023 µM | inhibition [5]: 35%
